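A five-concentration, 48-hour dose response in 96-well plates underlies each endpoint, interpolated linearly between surrounding concentrations. GI50: concentration for 50% inhibition of growth. TGI: concentration producing complete growth inhibition.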
How the values were obtained:
Experiment in all cases: NCI-60 cell line screen, 48 h
[1] = tested on: EKVX NSCLC
[2] = tested on: HL-60(TB) leukemia
[3] = tested on: HT29 colon
[4] = tested on: IGROV1 ovarian
[5] = tested on: MCF7 breast
[6] = tested on: MDA-MB-231 breast
[7] = tested on: OVCAR-4 ovarian
[8] = tested on: SF-295 CNS
[9] = tested on: SNB-19 CNS
[10] = tested on: RXF 393 renal

Row | SMILES | GI50 [1] [µM] | TGI [1] [µM] | GI50 [2] [µM] | TGI [2] [µM] | GI50 [3] [µM] | TGI [3] [µM] | GI50 [4] [µM] | TGI [4] [µM] | GI50 [5] [µM] | TGI [5] [µM] | GI50 [6] [µM] | TGI [6] [µM] | GI50 [7] [µM] | TGI [7] [µM] | GI50 [8] [µM] | TGI [8] [µM] | GI50 [9] [µM] | TGI [9] [µM] | TGI [10] [µM]
1 | Cn1ccnc1C(=O)/C=C/c1ccccc1 | 11.6 | 25.1 | 2.79 | 7.73 | 3.31 | 11.2 | 2.66 | 14 | 1.27 | 6.77 | 3.39 | 16.8 | 7.47 | 26 | 11.4 | 29.1 | – | – | –
2 | Fc1ccc(Nc2nc3nonc3nc2Nc2ccc(F)cc2)cc1 | – | – | 0.342 | 1.5 | 0.482 | 10.7 | 0.57 | 13.8 | 0.567 | 11.2 | 0.493 | 4.25 | 0.294 | 10.9 | 0.271 | 1.26 | 0.386 | 16.1 | –
3 | CC1C[C@@H]2C(=O)NC(=O)[C@@H]2c2c1c1ccccc1n2C (stereo partly drawn) | – | > 100 | – | > 100 | – | > 100 | – | > 100 | – | – | – | – | – | – | – | > 100 | – | > 100 | > 100
4 | COCCCNC(=O)CC(=O)NCCCOC | – | > 100 | – | > 100 | – | > 100 | – | > 100 | – | – | – | – | – | > 100 | – | > 100 | – | > 100 | > 100
5 | CCC(=O)c1c(NOC2OC(COC(C)=O)C(OC(C)=O)C(OC(C)=O)C2OC(C)=O)nc(OC)n(C)c1=O (stereo not drawn) | – | > 100 | – | – | – | > 100 | – | > 100 | – | – | – | – | – | > 100 | – | > 100 | – | > 100 | > 100
6 | CCOC(=O)C(=Cc1ccc(Oc2ccccc2)cc1)C(=O)OCC | – | 29.4 | – | 5.54 | – | 11 | – | 20.8 | – | 18.5 | – | – | – | 22.9 | – | 10.6 | – | 17.5 | 4.69
7 | COc1cc(OC)c(C2CC=Cc3c(OC)cc(OC)c(OC)c32)cc1OC (stereo not drawn) | – | > 100 | – | > 100 | – | > 100 | – | > 100 | – | – | – | – | – | > 100 | – | > 100 | – | – | > 100
8 | CCC1CCc2nc3sc(C(=O)Nc4cccc(F)c4)c(N)c3cc2C1 (stereo not drawn) | – | – | 0.343 | > 100 | – | – | > 100 | > 100 | 0.313 | > 100 | > 100 | > 100 | > 100 | > 100 | 0.901 | > 100 | > 100 | > 100 | –
9 | CC(=O)c1ccc(NC(=O)C(=O)Nn2c(=S)[nH]c3ccccc3c2=O)cc1 | – | > 100 | – | > 100 | – | > 100 | – | > 100 | – | – | – | – | – | > 100 | – | > 100 | – | > 100 | > 100
10 | O=[N+]([O-])c1cccc(-c2oc(C=Nc3ccccc3)c([N+](=O)[O-])c2-c2cccc([N+](=O)[O-])c2)c1 | – | > 100 | – | > 100 | – | > 100 | – | > 100 | – | – | – | – | – | – | – | > 100 | – | – | > 100
11 | CCC1CN2CCc3c([nH]c4ccccc34)C2C[C@@H]1CC(=O)N(C)C (stereo partly drawn) | – | > 100 | – | > 100 | – | > 100 | – | > 100 | – | – | – | – | – | > 100 | – | > 100 | – | > 100 | > 100
12 | O=C1C2C3C=CC(C2C(=O)N1COP(=O)(O)O)C1C2C(=O)N(COP(=O)(O)O)C(=O)C2C31 (stereo not drawn) | – | > 100 | – | 29.9 | – | > 100 | – | > 100 | – | – | – | – | – | > 100 | – | > 100 | – | > 100 | > 100
13 | COC(=O)c1c(N)n[nH]c1N | – | > 100 | – | > 100 | – | – | – | > 100 | – | – | – | – | – | > 100 | – | > 100 | – | > 100 | > 100
14 | O=C(Nc1nc2ncn(CCNCc3ccccc3)c2c(=O)[nH]1)c1ccccc1 | – | > 100 | – | > 100 | – | > 100 | – | > 100 | – | – | – | – | – | > 100 | – | > 100 | – | – | > 100
15 | Cc1ccc(S(=O)(=O)OCC23CCC(CC2)C2CC23)cc1 (stereo not drawn) | – | – | – | 39.1 | – | > 100 | – | > 100 | – | – | – | – | – | > 100 | – | > 100 | – | > 100 | –
16 | COC1OC(COCc2ccc(Cl)cc2)C(OCc2ccc(Cl)cc2)C1N=[N+]=[N-] (stereo not drawn) | – | > 100 | – | – | – | > 100 | – | > 100 | – | – | – | – | – | > 100 | – | > 100 | – | > 100 | > 100
17 | O=[N+]([O-])c1cccc(C2ON2C2CCCCC2)c1 (stereo not drawn) | – | > 100 | – | 47.9 | – | 28 | – | 44.8 | – | – | – | – | – | 38.3 | – | > 100 | – | 84.5 | –

From PubChem BioAssay (NCI)
